# Experimental data reported in ChEMBL document CHEMBL1144933, “Novel bioactive and stable neurotensin peptide analogues capable of delivering radiopharmaceuticals and molecular beacons to tumors” (J Med Chem, 2003).
# Where a SMILES comes first, the peptide text is derived from it. [ ]: non-standard residue; d: D form. The star is where a group is joined. Abu(1-amidino-4-piperidyl) = N=C(N)N1CCC(CC[C@H](N)C(=O)O)CC1; Gly(1-amidinopiperidin-4-yl) = N=C(N)N1CCC([C@H](N)C(=O)O)CC1; Ala(1-amidino-4-piperidyl) = N=C(N)N1CCC(C[C@H](N)C(=O)O)CC1; FITC = O=C1OC2(c3ccc(O)cc3Oc3cc(O)ccc32)c2ccc(NC(=S)*)cc21; DTPA = O=C(O)CN(CCN(CC(=O)O)CC(=O)O)CCN(CC(=O)O)CC(=O)*; Phe(4-guanidino) = N=C(N)Nc1ccc(C[C@H](N)C(=O)O)cc1; Gly(piperidin-4-yl) = N[C@H](C(=O)O)C1CCNCC1; Tle = CC(C)(C)[C@H](N)C(=O)O
# Target: Neurotensin receptor type 1 (Homo sapiens, UniProt P30989)
# Assay: Binding affinity towards neurotensin receptor in membranes prepared from HT-29 cell line, relative to [111In]-labeled neurotensin peptide
# Conditions: not given
# Neurotensin receptor type 1, sequence (P30989 whole entry): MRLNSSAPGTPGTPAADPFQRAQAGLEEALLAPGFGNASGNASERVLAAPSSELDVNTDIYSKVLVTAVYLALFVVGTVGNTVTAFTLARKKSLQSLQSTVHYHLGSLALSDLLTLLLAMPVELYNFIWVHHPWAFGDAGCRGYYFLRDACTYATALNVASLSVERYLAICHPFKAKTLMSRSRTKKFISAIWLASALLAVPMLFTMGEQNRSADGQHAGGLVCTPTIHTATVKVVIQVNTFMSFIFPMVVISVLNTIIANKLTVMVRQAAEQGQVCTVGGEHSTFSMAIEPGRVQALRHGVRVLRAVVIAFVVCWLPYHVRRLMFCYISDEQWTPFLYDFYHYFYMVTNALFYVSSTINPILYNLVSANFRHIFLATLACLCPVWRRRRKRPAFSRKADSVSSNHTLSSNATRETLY
row,SMILES,IC50
1,CC[C@H](C)[C@H](NC(=O)[C@H](Cc1ccc(O)cc1)NC(=O)[C@@H]1CCCN1C(=O)[C@H](Cc1ccc(NC(=N)N)cc1)NC(=O)[C@H](Cc1ccc(NC(=N)N)cc1)NC(=O)[C@@H]1CCCN1C(=O)[C@@H](CCCCN)NC(=O)CN(CCN(CCN(CC(=O)O)CC(=O)O)CC(=O)O)CC(=O)O)C(=O)N[C@@H](CC(C)C)C(=O)O ({DTPA}-[dK]P[Phe(4-guanidino)][Phe(4-guanidino)]PYIL-OH),22.1 nM
2,CC(C)C[C@H](NC(=O)[C@@H](NC(=O)[C@H](Cc1ccc(O)cc1)NC(=O)[C@@H]1CCCN1C(=O)[C@H](CCCN=C(N)N)NC(=O)[C@H](Cc1ccc(NC(=N)N)cc1)NC(=O)[C@@H]1CCCN1C(=O)[C@@H](CCCCN)NC(=O)CN(CCN(CCN(CC(=O)O)CC(=O)O)CC(=O)O)CC(=O)O)C(C)(C)C)C(=O)O ({DTPA}-[dK]P[Phe(4-guanidino)]RPY[Tle]L-OH),24.6 nM
3,CC(C)C[C@H](NC(=O)[C@@H](NC(=O)[C@H](Cc1ccc(O)cc1)NC(=O)[C@@H]1CCN1C(=O)[C@H](CCCN=C(N)N)NC(=O)[C@@H](NC(=O)[C@H](CCCN=C(N)N)NC(=O)[C@@H]1CCCN1C(=O)[C@@H](CCCCN)NC(=O)CN(CCN(CCN(CC(=O)O)CC(=O)O)CC(=O)O)CC(=O)O)C1CCN(C(=N)N)CC1)C(C)(C)C)C(=O)O,113 nM
4,CC(C)C[C@H](NC(=O)[C@@H](NC(=O)[C@H](Cc1ccc(O)cc1)NC(=O)[C@@H]1CCCN1C(=O)[C@H](CCCNC(=N)N)NC(=O)[C@H](CCC1CCN(C(=N)N)CC1)NC(=O)[C@@H]1CCCN1C(=O)[C@@H](CCCCN)NC(=O)CN(CCN(CCN(CC(=O)O)CC(=O)O)CC(=O)O)CC(=O)O)C(C)(C)C)C(=O)O ({DTPA}-[dK]P[Abu(1-amidino-4-piperidyl)]RPY[Tle]L-OH),6.3 nM

# Same assay, conditions: ht-29
row,SMILES,IC50
1,CC[C@H](C)[C@H](NC(=O)[C@H](Cc1ccc(O)cc1)NC(=O)[C@@H]1CCCN1C(=O)[C@H](CCCNC(=N)N)NC(=O)[C@@H](NC(=O)[C@@H]1CCCN1C(=O)[C@@H](CCCCN)NC(=S)Nc1ccc2c(c1)C(=O)OC21c2ccc(O)cc2Oc2cc(O)ccc21)C1CCN(C(=N)N)CC1)C(=O)N[C@@H](CC(C)C)C(=O)O,1.2 nM
2,CC(C)C[C@H](NC(=O)[C@@H](NC(=O)[C@H](Cc1ccc(O)cc1)NC(=O)[C@@H]1CCCN1C(=O)[C@@H](NC(=O)[C@@H](NC(=O)[C@@H]1CCCN1C(=O)[C@@H](CCCCN)NC(=O)CN(CCN(CCN(CC(=O)O)CC(=O)O)CC(=O)O)CC(=O)O)C1CCN(C(=N)N)CC1)C1CCNCC1)C(C)(C)C)C(=O)O,59.6 nM
3,CC(C)C[C@H](NC(=O)[C@@H](NC(=O)[C@H](Cc1ccc(O)cc1)NC(=O)[C@@H]1CCCN1C(=O)[C@H](CCCN=C(N)N)NC(=O)[C@@H](NC(=O)[C@@H]1CCCN1C(=O)[C@@H](NC(=S)Nc1ccc2c(c1)C(=O)OC21c2ccc(O)cc2Oc2cc(O)ccc21)C1CCNCC1)C1CCN(C(=N)N)CC1)C(C)(C)C)C(=O)O ({FITC}-[Gly(piperidin-4-yl)]P[Gly(1-amidinopiperidin-4-yl)]RPY[Tle]L-OH),0.5 nM
4,CC(C)C[C@H](NC(=O)[C@@H](NC(=O)[C@H](Cc1ccc(O)cc1)NC(=O)[C@@H]1CCCN1C(=O)[C@H](CCCN=C(N)N)NC(=O)[C@@H](NC(=O)[C@@H]1CCCN1C(=O)[C@@H](CCCCN)NC(=O)CN(CCN(CCN(CC(=O)O)CC(=O)O)CC(=O)O)CC(=O)O)C1CCN(C(=N)N)CC1)C(C)(C)C)C(=O)O,0.4 nM
5,CC[C@H](C)[C@H](NC(=O)[C@H](Cc1ccc(O)cc1)NC(=O)[C@@H]1CCCN1C(=O)[C@H](CCCN=C(N)N)NC(=O)[C@H](CCc1ccnc(N)n1)NC(=O)[C@@H]1CCCN1C(=O)[C@@H](CCCCN)NC(=O)CN(CCN(CCN(CC(=O)O)CC(=O)O)CC(=O)O)CC(=O)O)C(=O)N[C@@H](CC(C)C)C(=O)O,10.2 nM
6,CC(C)C[C@H](NC(=O)[C@@H](NC(=O)[C@H](Cc1ccc(O)cc1)NC(=O)[C@@H]1CCCN1C(=O)[C@H](CCCNC(=N)N)NC(=O)[C@@H](NC(=O)[C@@H]1CCCN1C(=O)[C@H](CC1CCN(C(=N)N)CC1)NC(=O)CN(CCN(CCN(CC(=O)O)CC(=O)O)CC(=O)O)CC(=O)O)C1CCN(C(=N)N)CC1)C(C)(C)C)C(=O)O ({DTPA}-[Ala(1-amidino-4-piperidyl)]P[Gly(1-amidinopiperidin-4-yl)]RPY[Tle]L-OH),> 1000 nM
